In PMC8428848, “Ancient role of sulfakinin/cholecystokinin-type signalling in inhibitory regulation of feeding processes revealed in an echinoderm” (eLife, 2021):
Values joined by “and” are separate entries in the source; they are usually repeats but may differ in a detail not shown here. Equal values may be shown once. Square brackets hold non-standard residues; d marks the D form. Peptide text beside a SMILES is read from it. sY = N[C@@H](Cc1ccc(OS(=O)(=O)O)cc1)C(=O)O; pGlu = O=C1CC[C@@H](C(=O)O)N1

Key:
Asterias rubens = test: In vivo feeding behaviour on mussels after injection; conditions: for time to touch (first contact with a mussel) / time to enclose (time to adopt a feeding posture): 10 nmol (10 µl of 1 mM) injected; for time to touch (first contact with a mussel) / time to enclose (time to adopt a feeding posture) / starfish proceeding to a feeding posture after the first touch: compared with water-injected controls; for time to enclose (time to adopt a feeding posture): p = 0.0523 ArSK/CCK1, p < 0.05 ArSK/CCK2; for starfish proceeding to a feeding posture after the first touch / number of advances to touch the mussel / number of starfish that did not initiate feeding within the 5 hr (300 min) observation period: 10 nmol injected; for starfish proceeding to a feeding posture after the first touch: Fisher's exact test; for number of advances to touch the mussel: data not shown; for number of starfish that did not initiate feeding within the 5 hr (300 min) observation period: n = 11 ArSK/CCK1, n = 19 ArSK/CCK2; for time to touch / time to enclose: individual animals
Description: Here, the same methods employed by [Tinoco et al., 2018] were used to investigate if ArSK/CCK1 and/or ArSK/CCK2 affect feeding behaviour in starfish. […] Then, starfish were fasted for 24 days and transferred to and kept individually in Plexiglas aquaria, as described previously ([Tinoco et al., 2018]). […] The time taken for starfish to make first contact with a mussel (tube feet touching the mussel or time to touch the mussel), the number of attempts to touch, as well as the time to enclose the mussel (indicated by a feeding posture) were recorded. Starfish that were feeding after 24 hr were included in data analysis and any starfish in the control or test group that had not fed on a mussel after 24 hr were discarded from data analysis.

[1] = system: affinity-purified rabbit antibodies to ArSK/CCK1; test: ELISA specificity test of affinity-purified antibodies to ArSK/CCK1; format: binding; conditions: TEA fraction diluted 1:10; peptide 0.1 nmol (100 µl of 1 µM); mean of six replicates
Description: To generate antibodies to ArSK/CCK1, an N-terminally truncated peptide analog of ArSK/CCK1 with the addition of a reactive N-terminal lysine residue was synthesized (KY(SO3H)GHGLFW-NH2 , Peptide Protein Research Ltd, Fareham, UK). To generate antibodies to ArSK/CCKR, a peptide corresponding to the C-terminal 15 amino acids of ArSK/CCK-R with addition of an N-terminal reactive lysine residue was synthesized (KPSPTNYTNVSSDSSV, Peptide Protein Research Ltd, Fareham, UK). These peptides were conjugated to porcine thyroglobulin (Sigma-Aldrich, Gillingham, UK) as a carrier protein using 5% glutaraldehyde (Sigma-Aldrich, Gillingham, UK) in phosphate buffer (0.1 M; pH 7.2) and the conjugate was used for immunisation of a rabbit for ArSK/CCK1 (70-day protocol; Charles River Biologics, Romans, France) and a guinea pig for ArSK/CCKR (56-day protocol; Charles River Biologics, Romans, France). The antigens were emulsified in Freund’s complete adjuvant for primary immunisations (~100 nmol antigen peptide) and in Freund’s incomplete adjuvant for three booster immunisations (~50 nmol antigen peptide). The presence of antibodies to the antigen peptides in post-immunisation serum samples was assessed using an enzyme-linked immunosorbent assay (ELISA), in comparison with pre-immune serum (Figure 5—figure supplement 1a; Figure 6—figure supplement 1). Antibodies to the antigen peptides were purified from the final bleed antiserum by affinity purification using the AminoLink Plus Immobilization Kit (Thermo Fisher Scientific, Waltham, MA), with bound antibodies eluted using glycine elution buffer (6.3 ml of 100 mM glycine [VWR Chemicals, Leicestershire, UK] and 0.7 ml of Tris [1 M, pH = 7.0]) and […] (TEA) elution buffer (6.3 ml of TEA [Sigma-Aldrich, Gillingham, UK] and 0.7 ml of Tris [1 M, pH = 7.0]). Eluates were dialyzed and sodium azide (0.1%) was added for long-term storage of the affinity-purified antibodies at 4°C. The specificity of ArSK/CCK1 antibodies eluted with TEA, which were subsequently used for immunohistochemistry (see below), was assessed by ELISA by testing them at a concentration of 1:10 with the following synthetic peptides (100 µl at a concentration of 1 µM dissolved in carbonate/bicarbonate buffer [25 mM sodium carbonate, 25 mM sodium bicarbonate, pH = 9.8]): ArSK/CCK1, ArSK/CCK2, ArSK/CCK2(ns) and the A. rubens luqin-type peptide ArLQ (Figure 5—figure supplement 1b). The rabbit antiserum to ArSK/CCK1 has been assigned the RRID:AB_2877176 and the guinea pig antiserum to ArSK/CCKR has been assigned the RRID:AB_2891354.

[2] = 10 µl of 1 mM peptide injected, n = 11
[3] = feeding experiments, count of animals
[4] = feeding experiments, percentage of animals

## CC(C)C[C@H](NC(=O)CNC(=O)[C@H](Cc1c[nH]cn1)NC(=O)CNC(=O)[C@H](Cc1ccc(OS(=O)(=O)O)cc1)NC(=O)[C@H](CC(=O)O)NC(=O)[C@H](CC(=O)O)NC(=O)[C@@H](NC(=O)[C@H](CCCCN)NC(=O)[C@H](CO)NC(=O)[C@@H]1CCC(=O)N1)C(C)C)C(=O)N[C@@H](Cc1ccccc1)C(=O)N[C@@H](Cc1c[nH]c2ccccc12)C(N)=O [ArSK/CCK1] ([pGlu]SKVDD[sY]GHGLFW-NH2)
Asterias rubens
  time to touch (first contact with a mussel): did not affect
  time to enclose (time to adopt a feeding posture): only a tendency to an increased time to enclose
  starfish proceeding to a feeding posture after the first touch: fewer
  number of advances to touch the mussel: increased number of advances
  number of starfish that did not initiate feeding within the 5 hr (300 min) observation period: four
Asterias rubens; [2]
  Number of animals, First touch success: 4
  Number of animals, Unsuccessful first touch: 7
  Percentage, First touch success: 36 Percentage
  Percentage, Unsuccessful first touch: 64 Percentage
Asterias rubens; one line each, 10 µl of 1 mM peptide injected
  time to touch: 10 min and 16 min and 8 min and 4 min and 2 min and 23 min and 19 min and 6 min and 3 min and 22 min and 48 min
Asterias rubens; one line each, 10 µl of 1 mM peptide injected, observation period 300 min
  time to enclose: 215 min and 29 min and 4 min and 24 min and 10 min and 6 min and 144 min
[1]
  ELISA reactivity (optical density) with antibodies to ArSK/CCK1: above the OD value for the negative control

## CC(C)C[C@H](NC(=O)CNC(=O)[C@H](Cc1ccccc1)NC(=O)CNC(=O)[C@H](Cc1ccc(O)cc1)NC(=O)[C@H](CCC(N)=O)NC(=O)[C@H](CC(=O)O)NC(=O)[C@H](CC(=O)O)NC(=O)CNC(=O)CN)C(=O)N[C@@H](Cc1ccccc1)C(=O)N[C@@H](Cc1ccccc1)C(N)=O [ArSK/CCK2(ns)] (H-GGDDQYGFGLFF-NH2; N-terminus assumed)
[1]
  ELISA reactivity (optical density) with antibodies to ArSK/CCK1: do not cross-react

## CC(C)C[C@H](NC(=O)CNC(=O)[C@H](Cc1ccccc1)NC(=O)CNC(=O)[C@H](Cc1ccc(OS(=O)(=O)O)cc1)NC(=O)[C@H](CCC(N)=O)NC(=O)[C@H](CC(=O)O)NC(=O)[C@H](CC(=O)O)NC(=O)CNC(=O)CN)C(=O)N[C@@H](Cc1ccccc1)C(=O)N[C@@H](Cc1ccccc1)C(N)=O [ArSK/CCK2] (H-GGDDQ[sY]GFGLFF-NH2; N-terminus assumed)
Asterias rubens
  time to touch (first contact with a mussel): did not affect
  time to enclose (time to adopt a feeding posture): higher
  starfish proceeding to a feeding posture after the first touch: fewer
  number of advances to touch the mussel: increased number of advances
  number of starfish that did not initiate feeding within the 5 hr (300 min) observation period: two
Asterias rubens; [3]
  Number of animals, First touch success: 12
  Number of animals, Unsuccessful first touch: 6
Asterias rubens; feeding experiments
  time to enclose: 11.3 min and 199.3 min and 190.75 min and 21 min and 27 min and 53 min and 49 min and 10 min and 237 min and 12 min and 17 min and 300 min and 77 min and 88 min and 22 min and 50 min and 8 min and 46 min
  time to touch: 9 min and 6.9 min and 13.1 min and 13 min and 24 min and 49 min and 46 min and 6 min and 11 min and 7 min and 14 min and 36 min and 3 min and 18 min and 45 min and 4 min and 40 min
Asterias rubens; [4]
  Percentage, First touch success: 67%
  Percentage, Unsuccessful first touch: 33%
[1]
  ELISA reactivity (optical density) with antibodies to ArSK/CCK1: do not cross-react
